# Measurements as given in PMC8373216, “Development and Preclinical Evaluation of New Inhaled Lipoglycopeptides for the Treatment of Persistent Pulmonary Methicillin-Resistant Staphylococcus aureus Infections” (Antimicrobial Agents and Chemotherapy, 2021).
# Read-outs that look alike come from different tables or passages of the source.
# Columns and labels:
# [1] = Single-dose nebulized nose-only inhalation PK in healthy rats; type: in vivo, rat; conditions: male, Sprague Dawley, rat, in vivo
# Experimental: Rats were acclimated in the study facility for approximately 1 week prior to study start. Ten or eleven rats per cohort were loaded into the chamber at the time of dosing. […] An additional airflow set to 6 liters/min was admixed with the nebulizer output to further direct the test articles to the animals. […] The remaining port on the chamber was fit with an aerosol sampling filter for dose determination over a 5 min sampling period. The average dose delivered to the nose of each animal was calculated using an algorithm that was previously described ([49]). […] Animals were euthanized for collection of whole lungs and plasma at time points ranging from immediate postdose (IPD; approximately 30 min after dosing for nebulization) to 168 h postdose (7 days). Drugs were extracted from tissues using customized protein precipitation methods with an appropriate internal standard for each compound and transferred for analysis by LC-MS/MS (Sciex API4500 or API6500+ mass spectrometer [Sciex, Framingham, MA]). GraphPad Prism (La Jolla, CA) was used for statistical analyses and data plotting. […] The data were applied to a noncompartmental analysis after extravascular dosing input and fit to a linear up/log down model. Statistical analysis of in vitro intracellular and biofilm activity was based on a two-way ANOVA with a Bonferroni post test. In vivo statistical analysis was based on the Kolmogorov-Smirnov test.
# [2] = type: physicochemical; conditions: pH 8
# Experimental: 40 to the primary metabolite.
# 41 percent degradation is defined as follows:
# [LLLLPPLL ] + [MMPPPPDDMM DDMMDDPPPP ]
# 45 Enzymes studied include :
# 108 Table S1: Enzyme hydrolysis of RV62 and RV94 was measured as a function of time in PBS (pH 8) at 37
# 109 °C. Control samples in the absence of enzyme were included as […]. Samples were analyzed
# 110 by HPLC detecting the parent RV derivative (RV62 or RV94).
# RV Percent RV derivative remaining in HPLC chromatograph, % […]
# [3] = system: MRSA ATCC BAA 1556 (USA300); test: In-house broth microdilution MIC screening; type: cell-based, Staphylococcus aureus; conditions: Staphylococcus aureus; broth microdilution; read-out: MIC Value, MRSA ATCC BAA 1556
# [4] = system: MSSA ATCC 29213; test: In-house broth microdilution MIC screening; type: cell-based; conditions: Staphylococcus aureus; broth microdilution; read-out: MIC Value, MSSA ATCC 29213
structure (smiles),measurement,setting,value
CCCCCCCCCCCC(=O)NCCNC1(C)CC(OC2C(Oc3c4cc5cc3Oc3ccc(cc3Cl)C(O)C3NC(=O)C(NC(=O)C5NC(=O)C(CC(N)=O)NC(=O)C(NC(=O)C(CC(C)C)NC)C(O)c5ccc(c(Cl)c5)O4)c4ccc(O)c(c4)-c4c(O)cc(O)cc4C(C(=O)O)NC3=O)OC(CO)C(O)C2O)OC(C)C1O (stereo not drawn) [RV62],Pulmonary dose,[1],0.15 mg/kg
same,Time to full conversion to hydrolysis product in the lung,[1],≤ 24 h
same,Drug lung level at 120 h,[1]; 120 h,0.1%
same,Primary hydrolysis byproduct lung level at 120 h,[1]; 120 h,107%
same,Kp,[1]; inhaled or intranasal,1550
same,Lung AUC0-∞,[1]; inhaled or intranasal,317 µg·h/g
same,Lung Cmax,[1]; inhaled or intranasal,30 µg/g
same,Lung t1/2,[1]; inhaled or intranasal,11 h
same,Plasma Cmax,[1]; inhaled or intranasal,20 ng/mL
same,Percent RV derivative remaining in HPLC chromatograph,[2]; 0 h,97.14%
same,Percent RV derivative remaining in HPLC chromatograph,[2]; 0.5 h,97.14%
same,Percent RV derivative remaining in HPLC chromatograph,[2]; 1 h,97.38%
same,Percent RV derivative remaining in HPLC chromatograph,[2]; 2 h,97.07%
same,MIC,[3],0.016 µg/mL
same,MIC,[4],0.016 µg/mL
